Measurements published in US7985745B2, “Method for pain treatment” (Abbott Laboratories, priority 2006, dated 2011).

How the values were obtained:
[1] = system: neuropathic pain; assay: Chung model: L5/L6 spinal nerve ligation, mechanical allodynia by von Frey filaments; type: in vivo, rat; details: 30 minutes before testing
Experimental: Animals were prepared for testing, by use of a surgical procedure that induces neuropathic pain in one paw. Male Sprague Dawley rats were purchased from Charles River (Portage, Mich.). Prior to surgery, animals were housed in groups and maintained in a temperature-regulated environment. Following nerve ligation surgery, animals were housed in groups, and had access to food and water ad libitum.
The L5 and L6 spinal nerves of anesthetized rats were tightly ligated in a manner described previously (see Kim and Chung, Pain (1992) vol. 50 pp. 355-363). An incision was made on the dorsal portion of the hip and the muscle was blunt-dissected to reveal the spinal processes. The L6 transverse process was removed, and the left side L5 and L6 spinal nerves were tightly ligated with 5.0 braided silk suture. The wound was cleaned, the membrane sewn with 4.0 dissolvable Vicryl suture and the skin closed with wound clips. The paw affected by the surgical procedure (the left paw) develops an allodynic response, a hypersensitivity to mechanical and other stimuli; neuropathic pain is assessed as an increased sensitivity in the surgically affected (left) allodynic paw compared to the control paw on the right side, and measured by comparing the response of the (left side) allodynic paw to the response of the unaffected right side control paw.
For the assessment of neuropathic pain, mechanical allodynia in the affected paw of animals that had undergone spinal nerve ligation was evaluated using testing with von Frey filaments. As described previously by S. R. Chaplan, et al (“Quantitative assessment of tactile allodynia in the rat paw” J. Neurosci. Meth. (1994) vol. 53 pp. 55-63), two weeks following surgery rats were acclimated to a testing box constructed of plexiglass with a wire mesh floor which allowed access to the plantar surface of the animal's hindpaws. Using an Up-Down method (Dixon, Annual Rev. Pharmacol. Toxicol. (1980) vol. 20, pp. 441-462; Chaplan et al. “Quantitative assessment of tactile allodynia in the rat paw” J. Neuroscience Methods (1994) vol. 53 pp. 55-63), von Frey filaments of increasing stiffness were applied to the plantar surface of the hindpaws and the withdrawal response of the animals was observed; for the surgically affected paw with neuropathic pain (the left side paw) the baseline level of allodynia has a withdrawal threshold of ≦4 g of pressure. By comparison, for the control paw without allodynia (in this case the right side paw), the typical withdrawal pressure is around 15 g. Representative compounds of the invention, administered intraperitoneally 30 minutes before testing, are able to reduce the symptoms of neuropathic pain and induce a dose-dependent increase in the withdrawal threshold for allodynic (left side) limb, up to a maximum effect of 15 g. The efficacy of the compound in reducing neuropathic pain at different doses is determined by comparing response in the surgery-affected paw versus the response in the control paw. This is expressed as the MPE (maximum percent effect), or 100 times the withdrawal threshold of the allodynic (left side) divided by the withdrawal threshold of the control (right side).

[2] = system: mechanical allodynia after skin incision; assay: Surgical skin incision model, mechanical allodynia by von Frey hair; type: in vivo, rat
Experimental: This is a surgical skin incision model (Joshi, et al. Pain 123 (2006) 75-82). Animals (rats) were prepared for testing by subjecting them to a surgical procedure carried out under sterile conditions, where the plantaris muscle was elevated and incised longitudinally with the origin and insertion of the muscle remaining intact. The skin was then closed with two mattress sutures (e.g. 5-0 nylon sutures). After surgery, animals were allowed to recover on a warming plate and housed individually in cages with soft bedding. […] Animals were tested for mechanical allodynia using von Frey hair mechanical stimulation 2, 24, and 48 h after surgery as described for the Chung model.

[3] = system: inflammatory pain; assay: Carrageenan-induced thermal hyperalgesia, hotbox assay; type: in vivo; details: 90 minutes after carrageenan, tested 30 minutes after dosing
Experimental: To assess the effectiveness of representative compounds of the invention against acute model inflammatory pain, animals were tested in an acute model of carrageenan-induced thermal hyperalgesia (see for example, Honore, et al. Behavioural Brain Research 167 (2006) 355-364; Porreca, et al. Journal of Pharmacology and Experimental Therapeutics (2006) vol. 318 pp. 195-205). Carrageenan was injected into the test paw of the animal, and after 90 minutes, the test drug was administered by intraperitoneal dosing. The effect on thermal hyperalgesia was assessed in a hotbox assay which was done 30 minutes after the intraperitoneal dosing of the test drug, and the MPE (maximal percent effect) reported by comparison to the control paw (not injected with carrageenan), according to 100 times the withdrawal latency of the carrageenan injected paw (in seconds) divided by the withdrawal latency of the control (not injected with carrageenan) paw.

[4] = system: tactile allodynia; assay: Complete Freund's adjuvant model, tactile allodynia by von Frey filaments; type: in vivo, rat; details: 48 hours after CFA, mechanical stimulus
Experimental: In a separate method of assessing the effectiveness of representative compounds of the invention against hyperalgesia, animals were tested in the acute model of adjuvant-induced hyperalgesia using Complete Freund's Adjuvant (CFA) as described above, but in this case, tactile allodynia to a mechanical stimulus was measured using calibrated von Frey filaments (Stoelting, Wood Dale, Ill.). Animals were prepared as described above: a solution of Complete Freund's adjuvant (150 microliters of a 50% aqueous solution, Sigma Chemical Company, St. Louis, Mo.) was injected into the plantar surface of test paw of the animal (rat). Rats so injected develop a hyperalgesia to mechanical (touch) stimulation which is assessed 48 hours after injection of the Complete Freund's adjuvant. Withdrawal threshold was determined by increasing and decreasing stimulus intensity, and estimated using the Dixon's up-down method (Dixon, Annual Rev. Pharmacol. Toxicol. (1980) vol. 20, pp. 441-462; Chaplan et al. “Quantitative assessment of tactile allodynia in the rat paw” J. Neuroscience Methods (1994) vol. 53 pp. 55-63). Rats were placed into inverted individual plastic containers (20×12.5×20 cm) on top of a suspended wire mesh with a 1 cm^2 grid to provide access to the ventral side of the hind paws, and acclimated to the test chambers for 20 min. The von Frey filaments were presented perpendicularly to the plantar surface of the selected hind paw, and then held in this position for approximately 8 seconds with enough force to cause a slight bend in the filament. Positive responses included an abrupt withdrawal of the hind paw from the stimulus, or flinching behavior immediately following removal of the stimulus. Withdrawal threshold was determined using an up-down procedure (Dixon, Annual Rev. Pharmacol. Toxicol. (1980) vol. 20, pp. 441-462; Chaplan et al. “Quantitative assessment of tactile allodynia in the rat paw” J. Neuroscience Methods (1994) vol. 53 pp. 55-63). The strength of the maximum filament used for von Frey testing was 15.0 g.

| SMILES | MPE ([1]; 30 micromole/kg i.p.) [%] | MPE ([1]; 100 micromole/kg i.p.) [%] | MPE ([1]; 300 micromole/kg i.p.) [%] | MPE ([1]; 500 micromole/kg i.p.) [%] | MPE ([2]; 30 micromole/kg i.p.) [%] | MPE ([2]; 100 micromole/kg i.p.) [%] | MPE ([3]; 30 micromole/kg i.p.) [%] | MPE ([3]; 100 micromole/kg i.p.) [%] | MPE ([4]; 30 micromole/kg i.p.) [%] | MPE ([4]; 100 micromole/kg i.p.) [%] | MPE ([1]; 250 micromole/kg i.p.) [%] | MPE ([2]; 250 micromole/kg i.p.) [%] | MPE ([2]; 500 micromole/kg i.p.) [%] | MPE ([3]; 300 micromole/kg i.p.) [%] | MPE ([4]; 300 micromole/kg i.p.) [%] |
| --- | --- | --- | --- | --- | --- | --- | --- | --- | --- | --- | --- | --- | --- | --- | --- |
| CN1CCN(c2cc(-c3ccc(C#N)cc3)nc(N)n2)CC1.O=C(O)/C=C\C(=O)O [Example 1, 4-(2-Amino-6-(4-methylpiperazin-1-yl)pyrimidin-4-yl)benzonitrile, maleate] | 14 | 44 | 77 | 97 | 31 | 65 | 36 | 100 | 42 | 63 | – | – | – | – | – |
| CN1CCN(C(=O)c2cc3cc(Cl)ccc3[nH]2)CC1 [Example 3, reference compound] | – | 16 | – | 94 | – | – | 23 | 49 | 55 | – | 50 | 46 | 79 | 96 | 71 |
| CNC1CN(c2nc(N)nc3c2CCCc2ccccc2-3)C1 [Example 6, 4-(3-Methylamino-azetidin-1-yl)-6,7-dihydro-5H-benzo[6,7]cyclohepta[1,2-d]pyrimidin-2-ylamine] | – | 36 | 78 | – | 21 | 69 | – | 41 | 35 | 49 | – | – | – | – | – |
